Patent US20240025919A1, “AZA-TETRACYCLIC OXAZEPINE COMPOUNDS AND USES THEREOF” (Genentech, Inc., priority 2022, published 2024)
Read-outs that look alike come from different tables or passages of the source.

Key:
KRAS G12D = KRAS G12D (Homo sapiens (Human), UniProt P01116, G12D); experiment: KRAS G12D LoEnz Biochemical Assay, BODIPY-GDP Exchange TR-FRET (SOS1-mediated nucleotide exchange); conditions: read-out: KRas (G12D) GDP HTRF IC50
[1] = tested on: HPAC (homozygous mutant KRAS G12D human pancreatic cell line); experiment: KRAS 3D-Cell Proliferation Assay, HPAC (CellTiter-Glo 3D, 7 days); assay type: cell-based; conditions: HPAC 3D culture, read-out: Prolif HPAC 3D ATP IC50
Protocol: (§1) Example 503: KRAS 3D-Cell Proliferation Assays. Cellular potencies of compounds are assessed by evaluating inhibition of proliferation in 3D cultures of homozygous mutant KRAS G12D human pancreatic cell lines (AsPC-1 and HPAC) as compared to a KRAS wild type human lung adenocarcinoma cell line (PC-9 and/or H1975). Cells are seeded into 384-well black round-bottom, ultra-low attachment assay plates in 50 uL cell growth medium (RPMI-1640 with 10% fetal bovine serum and 2 mM L-glutamine). After overnight incubation at 37° C. and 5% CO2, compounds solubilized in DMSO are added as dilution series to the wells in a total volume of 150 nL (0.3% DMSO final). The cells are incubated for 7 days at 37° C. and 5% CO2. Cell proliferation is quantitated by addition of 40 uL/well of CellTiter-GloO 3D (Promega), and the well contents are mixed 20× at high speed using liquid handling automation workstation (Bravo with 384-well head) and centrifuged at 1500 rpm for 2 minutes to eliminate bubbles. This reagent in combination with mechanical disruption releases the cellular ATP to promote activity in a luciferase-based enzyme/substrate chemiluminescent detection system. After a 30-minute incubation under ambient conditions with shaking and an additional 10 minutes without shaking, the luminescence is read on a plate reader (e.g. EnVision [PerkinElmer]). The results are normalized to percent inhibition based on the following control samples: DMSO (0% inhibition) and 1 uM staurosporine (100% inhibition). The normalized luminescence results are plotted against compound concentration, and the data are fit to a 4-parameter Hill equation to determine the IC50 values.

KRAS WT [2] = target: T1, KRAS WT (Homo sapiens (Human), UniProt P01116); experiment: KRAS WT Biochemical Assay, BODIPY-GDP Exchange TR-FRET (Example 502; 0.06 nM KRAS WT, 15 nM GDP, 300 nM SOS1, 120-minute incubation); conditions: read-out: KRas HTRF IC50
T1 sequence (P01116-2 other isoform, or with tags, fused parts or gaps): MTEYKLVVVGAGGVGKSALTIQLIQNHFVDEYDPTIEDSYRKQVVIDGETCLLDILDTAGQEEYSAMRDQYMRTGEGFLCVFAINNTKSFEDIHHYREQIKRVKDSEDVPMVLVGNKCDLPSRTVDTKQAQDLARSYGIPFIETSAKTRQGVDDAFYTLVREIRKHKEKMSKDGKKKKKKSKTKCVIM
How it was run: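 IC50 from a 4-parameter Hill fit of percent inhibition, itself the TR-FRET 520/490 nm ratio scaled between DMSO and a fully inhibiting control. Reaction: 300 nM SOS1 and 300 nM BODIPY-GDP added to preformed 0.06 nM KRAS WT/15 nM GDP/Tb-streptavidin complex; 120 min incubation; pH 7.5 HEPES, MgCl2, DTT.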

[3] = tested on: H1975 (KRAS wild type human lung adenocarcinoma cell line); experiment: KRAS 3D-Cell Proliferation Assay, H1975 (CellTiter-Glo 3D, 7 days); assay type: cell-based; conditions: H1975 3D culture, read-out: Prolif H1975 3D ATP IC50
Protocol: as §1

KRAS WT [4] = target: T1, KRAS WT; experiment: KRAS WT Biochemical Assay, BODIPY-GDP Exchange TR-FRET (Example 501; 3 nM KRAS WT, 3 nM SOS1, 60-minute incubation); conditions: read-out: KRas HTRF IC50
How it was run: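 SOS1-mediated exchange assay: 3 nM biotin-KRAS WT with terbium-streptavidin, started with 3 nM SOS1 and 300 nM BODIPY-GDP, HEPES pH 7.5 with MgCl2. TR-FRET (520/490 nm) read after 60 min; normalized to DMSO and full-inhibition control, IC50 from 4-parameter Hill fit.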

Chain of KRAS G12D (P01116-2 other isoform, or with tags, fused parts or gaps G12D): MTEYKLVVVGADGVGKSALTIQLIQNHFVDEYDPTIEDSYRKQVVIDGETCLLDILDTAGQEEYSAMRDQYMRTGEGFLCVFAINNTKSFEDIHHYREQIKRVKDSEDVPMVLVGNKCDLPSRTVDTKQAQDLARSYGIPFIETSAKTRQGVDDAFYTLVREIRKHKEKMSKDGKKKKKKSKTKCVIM

Cc1c(F)c(N)cc(-c2nc3c4c(nc(OC[C@@]56CCCN5[C@@H](C(F)F)CC6)nc4c2F)N2C[C@H]4CC[C@H](N4)[C@H]2[C@H](C)O3)c1C(F)(F)F (single isomer, unassigned) [130 (isomer 1)]
IC50 (KRAS G12D): 2.26 nM
IC50 [1]: 44.7 nM
IC50 (KRAS WT [2]): 460 nM
IC50 ([3]; Homo sapiens, NCI-H1975, 168 h): 2830 nM

Cc1c(F)c(N)cc(-c2nc3c4c(nc(OC[C@@]56CCCN5[C@@H](C(F)F)CC6)nc4c2F)N2C[C@H]4CC[C@H](N4)[C@H]2[C@H](C)O3)c1C(F)(F)F (single isomer, unassigned) [130 (isomer 2)]
IC50 (KRAS G12D): 0.92 nM
IC50 [1]: 15.8 nM
IC50 (KRAS WT [2]): 174 nM
IC50 [3]: 2900 nM

Cc1c(F)c(N)cc(-c2nc3c4c(nc(OC[C@@H]5COC[C@H]6CCCN65)nc4c2F)N2C[C@H]4CC[C@H](N4)[C@H]2[C@H](C)O3)c1C(F)(F)F (single isomer, unassigned) [121 (isomer 2)]
IC50 (KRAS G12D): 0.27 nM
IC50 ([1]; Homo sapiens, HPAC, 168 h): 17.5 nM
IC50 (KRAS WT [2]): 49.3 nM
IC50 ([3]; Homo sapiens, NCI-H1975, 168 h): 533 nM

Cc1c(F)c(N)cc(-c2nc3c4c(nc(OCC5CCC6CC(F)(F)CN56)nc4c2F)N2C[C@H]4CC[C@H](N4)[C@H]2[C@H](C)O3)c1C(F)(F)F (single isomer, unassigned) [153 (isomer 1)]
IC50 (KRAS G12D): 0.37 nM
IC50 [1]: 19 nM
IC50 (KRAS WT [2]): 90.9 nM
IC50 ([3]; Homo sapiens, NCI-H1975, 168 h): 4740 nM

Cc1c(F)c(N)cc(-c2nc3c4c(nc(OC[C@@]56CCN5CC(F)(F)C6)nc4c2F)N2C[C@H]4CC[C@H](N4)[C@H]2[C@H](C(F)(F)F)O3)c1C(F)(F)F (single isomer, unassigned) [263 (diast. 1)]
IC50 (KRAS G12D): 0.26 nM
IC50 ([1]; Homo sapiens, HPAC, 168 h): 6.14 nM
IC50 ([3]; Homo sapiens, NCI-H1975, 168 h): 789 nM
IC50 (KRAS WT [4]): 5.49 nM

Cc1c(F)c(N)cc(-c2nc3c4c(nc(OC[C@@]56CCCN5C[C@H](F)C6)nc4c2F)N2CCN[C@H](C)[C@@H]2[C@@H](C)O3)c1C(F)(F)F (single isomer, unassigned) [234 (isomer 4)]
IC50 (KRAS G12D): 589 nM
IC50 ([1]; Homo sapiens, HPAC, 168 h): 2000 nM
IC50 ([3]; Homo sapiens, NCI-H1975, 168 h): 8500 nM
IC50 (KRAS WT [4]): 510 nM

Cc1c(F)c(N)cc(-c2nc3c4c(nc(OC[C@H]5CC[C@@H]6CN(C)C(=O)CN56)nc4c2F)N2C[C@H]4CC[C@H](N4)[C@H]2[C@H](C)O3)c1C(F)(F)F (single isomer, unassigned) [131 (isomer 2)]
IC50 (KRAS G12D): 1.31 nM
IC50 [1]: 342 nM
IC50 (KRAS WT [2]): 293 nM
IC50 [3]: 20000 nM

Cc1c(F)c(N)cc(-c2nc3c4c(nc(OC[C@@]56CCC[C@@H]5N(C)CCC6)nc4c2F)N2C[C@H]4CC[C@H](N4)[C@H]2[C@H](C)O3)c1C(F)(F)F (single isomer, unassigned) [126 (isomer 2)]
IC50 (KRAS G12D): 0.09 nM
IC50 ([1]; Homo sapiens, HPAC, 168 h): 5.15 nM
IC50 (KRAS WT [2]): 8.08 nM
IC50 ([3]; Homo sapiens, NCI-H1975, 168 h): 1770 nM

Cc1c(F)c(N)cc(-c2nc3c4c(nc(OC[C@@]56CCCN5C[C@H](F)C6)nc4c2F)N2CCN[C@@H](C)[C@H]2[C@@H](C)O3)c1C(F)(F)F (single isomer, unassigned) [234 (isomer 2)]
IC50 (KRAS G12D): 209 nM
IC50 ([1]; Homo sapiens, HPAC, 168 h): 2000 nM
IC50 ([3]; Homo sapiens, NCI-H1975, 168 h): 9750 nM
IC50 (KRAS WT [4]): 513 nM

Cc1c(F)c(N)cc(-c2nc3c4c(nc(OCC5CC(F)C6CCCN56)nc4c2F)N2C[C@H]4CC[C@H](N4)[C@H]2[C@H](C)O3)c1C(F)(F)F (single isomer, unassigned) [Compound 160 (diast. 2)]
IC50 (KRAS G12D): 0.12 nM
IC50 ([1]; Homo sapiens, HPAC, 168 h): 6.97 nM
IC50 (KRAS WT [2]): 22.5 nM
IC50 ([3]; Homo sapiens, NCI-H1975, 168 h): 755 nM

Cc1c(F)c(N)cc(-c2nc3c4c(nc(OCC5CCC6CC(F)(F)CN56)nc4c2F)N2C[C@H]4CC[C@H](N4)[C@H]2[C@H](C)O3)c1C(F)(F)F (single isomer, unassigned) [153 (isomer 3)]
IC50 (KRAS G12D): 0.55 nM
IC50 [1]: 32.9 nM
IC50 (KRAS WT [2]): 125 nM
IC50 [3]: 4490 nM

Cc1c(F)c(N)cc(-c2nc3c4c(nc(OCC56CCCN5CC(F)C6F)nc4c2F)N2C[C@H]4CC[C@H](N4)[C@H]2[C@H](C)O3)c1C(F)(F)F (single isomer, unassigned) [143 (isomer 2)]
IC50 (KRAS G12D): 0.26 nM
IC50 ([1]; Homo sapiens, HPAC, 168 h): 3.52 nM
IC50 (KRAS WT [2]): 33.5 nM
IC50 ([3]; Homo sapiens, NCI-H1975, 168 h): 1130 nM
